The text below walks through data of ChEMBL document CHEMBL3862002, “Wortmannilactones I-L, new NADH-fumarate reductase inhibitors, induced by adding suberoylanilide hydroxamic acid to the culture medium of Talaromyces wortmannii” (Bioorg Med Chem Lett, 2016).

A short description of experiment [1]: Inhibition of NADH oxidase in pig heart sub-mitochondrial particles using NADH as substrate after 3 mins measured every 15 sec for 10 mins under aerobic condition. Details: species or system Sus scrofa.
The target in another experiment is T1, Fumarate reductase (Ascaris suum, UniProt F1KRD8).
T1 sequence (F1KRD8 whole entry): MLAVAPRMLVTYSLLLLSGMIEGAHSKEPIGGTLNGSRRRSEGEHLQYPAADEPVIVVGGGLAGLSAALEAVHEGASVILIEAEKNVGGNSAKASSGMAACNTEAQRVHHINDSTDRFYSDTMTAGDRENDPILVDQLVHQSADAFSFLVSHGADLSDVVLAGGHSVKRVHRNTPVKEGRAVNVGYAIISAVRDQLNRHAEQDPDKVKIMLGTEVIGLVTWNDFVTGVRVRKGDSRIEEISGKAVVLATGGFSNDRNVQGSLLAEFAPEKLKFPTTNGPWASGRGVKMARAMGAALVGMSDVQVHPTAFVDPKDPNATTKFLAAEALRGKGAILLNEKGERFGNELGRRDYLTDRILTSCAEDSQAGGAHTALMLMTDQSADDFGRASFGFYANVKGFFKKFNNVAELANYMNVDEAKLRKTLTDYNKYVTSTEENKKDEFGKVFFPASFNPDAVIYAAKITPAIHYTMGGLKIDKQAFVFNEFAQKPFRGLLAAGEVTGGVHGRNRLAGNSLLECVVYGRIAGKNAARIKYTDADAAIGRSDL
Kind of experiment: Inhibition of NADH-Fumarate reductase in Ascaris suum muscle sub-mitochondrial particles using disodium fumarate as substrate in presence of NADH after 3 mins measured every 15 sec for 10 mins under anaerobic condition.

For the compound `C=C1C=C(C)[C@H](/C(C)=C/C=C/C=C/C=C/[C@]2(C)[C@H]3OC(=O)[C@]2(C)C(=O)[C@@H]3C)O[C@H]1C`, the values for the IC50 (in experiment [1]; at Fumarate reductase) were 35000 nM and 840 nM, respectively. In the case of `CC1=C[C@@](C)(O)[C@@H](C)O[C@@H]1/C(C)=C/C=C/C=C/C=C/C(C)=C/[C@]1(C)[C@H]2OC(=O)[C@]1(C)C(=O)[C@@H]2C`, the IC50 on Fumarate reductase turned out to be 470 nM.

As for `CC1=C[C@@](C)(O)[C@@H](C)O[C@H]1/C(C)=C/C=C/C=C/C=C/C(C)=C/[C@]1(C)[C@H]2OC(=O)[C@]1(C)C(=O)[C@@H]2C`, the IC50 on Fumarate reductase stood at 2.4 nM. As for `CO[C@@]1(C)C=C(C)[C@H](/C(C)=C/C=C/C=C/C=C/[C@]2(C)[C@H]3OC(=O)[C@]2(C)C(=O)[C@@H]3C)O[C@H]1C`, the IC50 is 100000 nM in experiment [1] and 840 nM at Fumarate reductase. For the compound `Cc1cc(/C=C/c2ccc3cc(N(C)C)ccc3[n+]2C)c(C)n1-c1ccccc1` [PYRVINIUM PAMOATE], on Fumarate reductase, the IC50 turned out to be 500 nM.

As for `CC1=C[C@](C)(O)[C@H](/C(C)=C/C=C/C=C/C=C/[C@]2(C)[C@H]3OC(=O)[C@]2(C)C(=O)[C@@H]3C)O[C@H]1C`, the IC50 in experiment [1] turned out to be 56000 nM; on Fumarate reductase, 850 nM. As for `CO[C@]1(C)C=C(C)[C@H](/C(C)=C/C=C/C=C/C=C/[C@]2(C)[C@H]3OC(=O)[C@]2(C)C(=O)[C@@H]3C)O[C@H]1C`, the IC50 in experiment [1] was 145000 nM; at Fumarate reductase, 1350 nM.
